From patent US20120270915A1, “FATTY ACID AMIDE HYDROLASE INHIHIBITORS FOR TREATING PAIN” (priority 2011, published 2012)
Like-named read-outs stand apart in the source and are kept apart here.

What was measured:
[1] = target: T1, EP1 receptor (Homo sapiens, UniProt P34995); assay: Prostanoid receptor antagonism (FLIPR), EP1; format: cell-based
T1 sequence (P34995 1-402): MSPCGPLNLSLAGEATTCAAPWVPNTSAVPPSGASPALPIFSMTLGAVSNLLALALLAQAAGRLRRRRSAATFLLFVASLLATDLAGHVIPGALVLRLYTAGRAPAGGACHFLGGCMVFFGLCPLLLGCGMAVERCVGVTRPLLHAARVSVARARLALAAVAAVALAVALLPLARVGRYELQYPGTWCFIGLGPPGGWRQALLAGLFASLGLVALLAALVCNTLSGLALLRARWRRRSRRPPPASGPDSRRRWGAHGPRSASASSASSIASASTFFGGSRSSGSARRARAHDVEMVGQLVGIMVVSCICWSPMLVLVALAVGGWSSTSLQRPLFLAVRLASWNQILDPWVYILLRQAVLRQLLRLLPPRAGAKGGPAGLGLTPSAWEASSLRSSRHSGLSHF

[2] = target: IP receptor (Homo sapiens, UniProt P43119); assay: Prostanoid receptor antagonism (FLIPR), IP; format: cell-based
IP receptor, sequence (P43119 whole entry): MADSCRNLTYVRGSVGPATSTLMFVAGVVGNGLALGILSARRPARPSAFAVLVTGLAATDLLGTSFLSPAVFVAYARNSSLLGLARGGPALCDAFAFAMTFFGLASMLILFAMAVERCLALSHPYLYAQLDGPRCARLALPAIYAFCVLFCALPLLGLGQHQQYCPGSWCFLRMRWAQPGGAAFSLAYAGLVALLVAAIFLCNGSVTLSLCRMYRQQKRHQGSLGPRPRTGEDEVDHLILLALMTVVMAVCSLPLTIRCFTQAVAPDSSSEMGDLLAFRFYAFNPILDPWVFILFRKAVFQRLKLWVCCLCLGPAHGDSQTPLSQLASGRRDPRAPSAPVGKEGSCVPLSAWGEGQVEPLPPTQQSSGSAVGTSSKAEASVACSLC

[3] = target: T2, FAAH Rat brain (Rattus norvegicus, UniProt P97612); assay: FAAH inhibitory activity, rat brain membranes, [14C]-AEA hydrolysis; format: biochemical
T2 construct: from tissue; host or cells: rat brain membranes
T2 sequence (P97612 1-579): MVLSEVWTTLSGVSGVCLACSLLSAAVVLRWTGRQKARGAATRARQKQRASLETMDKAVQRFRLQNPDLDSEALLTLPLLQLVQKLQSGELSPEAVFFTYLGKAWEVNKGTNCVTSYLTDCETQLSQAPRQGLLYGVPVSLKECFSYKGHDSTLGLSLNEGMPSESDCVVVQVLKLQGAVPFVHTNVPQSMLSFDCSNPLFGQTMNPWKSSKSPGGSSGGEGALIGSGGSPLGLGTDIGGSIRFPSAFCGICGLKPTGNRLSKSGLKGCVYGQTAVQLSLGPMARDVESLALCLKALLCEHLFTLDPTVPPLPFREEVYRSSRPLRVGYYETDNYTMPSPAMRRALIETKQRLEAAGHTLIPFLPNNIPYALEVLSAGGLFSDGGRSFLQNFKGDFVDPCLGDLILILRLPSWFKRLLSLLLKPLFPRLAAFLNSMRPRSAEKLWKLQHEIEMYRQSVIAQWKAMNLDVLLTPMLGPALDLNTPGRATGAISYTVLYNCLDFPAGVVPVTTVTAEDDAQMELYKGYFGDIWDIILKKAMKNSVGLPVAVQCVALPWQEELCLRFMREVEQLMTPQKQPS
Description: The compounds of Examples 12, and 19 are tested for FAAH inhibitory activity as follows:
Method 1: Membranes obtained from rat brain are incubated with 2 mM [^14C]-AEA, 30 min at 37° C. at pH values ranging from 9.00 to 10.00 in presence and absence of tested compounds in a final volume of […]. Incubation is stopped by extraction with CHCl3/MeOH (1:1) and the aqueous phases containing [^14C]-Ethanolamine produced by [^14C]-AEA hydrolysis are measured.

[4] = target: T3, DP receptor (Homo sapiens, UniProt Q13258); assay: Prostanoid receptor antagonism (FLIPR), DP; format: cell-based
T3 sequence (Q13258 1-359): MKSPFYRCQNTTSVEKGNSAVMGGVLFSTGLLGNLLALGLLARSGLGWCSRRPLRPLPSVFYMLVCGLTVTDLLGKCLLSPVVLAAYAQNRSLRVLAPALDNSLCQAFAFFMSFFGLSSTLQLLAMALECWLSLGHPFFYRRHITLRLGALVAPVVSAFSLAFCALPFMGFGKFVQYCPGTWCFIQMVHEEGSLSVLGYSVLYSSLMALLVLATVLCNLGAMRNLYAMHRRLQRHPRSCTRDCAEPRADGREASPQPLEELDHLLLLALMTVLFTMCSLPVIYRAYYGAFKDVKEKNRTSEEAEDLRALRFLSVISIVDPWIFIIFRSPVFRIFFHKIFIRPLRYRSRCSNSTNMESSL

[5] = target: T4, TP receptor (Homo sapiens, UniProt P21731); assay: Prostanoid receptor antagonism (FLIPR), TP; format: cell-based
T4 sequence (P21731 1-343): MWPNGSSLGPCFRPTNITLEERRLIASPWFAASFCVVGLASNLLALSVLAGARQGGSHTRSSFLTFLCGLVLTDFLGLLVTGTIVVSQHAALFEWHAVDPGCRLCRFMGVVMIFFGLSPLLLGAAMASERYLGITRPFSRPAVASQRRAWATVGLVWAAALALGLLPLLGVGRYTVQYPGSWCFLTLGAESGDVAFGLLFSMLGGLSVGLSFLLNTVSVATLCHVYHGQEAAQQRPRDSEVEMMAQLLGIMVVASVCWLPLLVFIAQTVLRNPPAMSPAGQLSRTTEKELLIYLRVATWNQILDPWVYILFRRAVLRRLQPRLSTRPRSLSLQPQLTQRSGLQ

[6] = target: EP4 receptor (Homo sapiens, UniProt P35408); assay: Prostanoid receptor antagonism (FLIPR), EP4; format: cell-based
EP4 receptor, sequence (P35408 whole entry): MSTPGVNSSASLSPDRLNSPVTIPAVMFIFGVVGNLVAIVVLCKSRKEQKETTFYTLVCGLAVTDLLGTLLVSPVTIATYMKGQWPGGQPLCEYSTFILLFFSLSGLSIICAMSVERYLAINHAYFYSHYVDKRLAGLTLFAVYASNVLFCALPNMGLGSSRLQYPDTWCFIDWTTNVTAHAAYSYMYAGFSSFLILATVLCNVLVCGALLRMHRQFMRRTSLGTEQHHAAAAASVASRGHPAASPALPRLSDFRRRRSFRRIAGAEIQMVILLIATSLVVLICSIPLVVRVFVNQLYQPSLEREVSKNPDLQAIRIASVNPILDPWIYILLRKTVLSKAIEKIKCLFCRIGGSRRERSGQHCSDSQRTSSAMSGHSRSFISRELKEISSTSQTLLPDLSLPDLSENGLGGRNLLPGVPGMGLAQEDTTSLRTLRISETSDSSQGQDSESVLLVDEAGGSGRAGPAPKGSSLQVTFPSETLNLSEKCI

[7] = target: FP receptor (Homo sapiens, UniProt P43088); assay: Prostanoid receptor antagonism (FLIPR), FP; format: cell-based
FP receptor, sequence (P43088 whole entry): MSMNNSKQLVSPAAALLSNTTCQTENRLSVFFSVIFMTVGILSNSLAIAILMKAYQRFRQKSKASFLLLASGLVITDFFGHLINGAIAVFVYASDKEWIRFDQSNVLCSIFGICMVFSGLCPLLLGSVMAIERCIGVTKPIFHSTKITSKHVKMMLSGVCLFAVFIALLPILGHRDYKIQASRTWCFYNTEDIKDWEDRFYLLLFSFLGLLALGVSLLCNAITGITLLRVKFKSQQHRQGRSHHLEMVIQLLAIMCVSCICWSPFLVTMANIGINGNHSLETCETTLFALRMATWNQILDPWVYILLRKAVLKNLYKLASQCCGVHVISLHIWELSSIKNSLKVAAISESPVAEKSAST

[8] = target: EP2 receptor (Homo sapiens, UniProt P43116); assay: Prostanoid receptor antagonism (FLIPR), EP2; format: cell-based
EP2 receptor, sequence (P43116 whole entry): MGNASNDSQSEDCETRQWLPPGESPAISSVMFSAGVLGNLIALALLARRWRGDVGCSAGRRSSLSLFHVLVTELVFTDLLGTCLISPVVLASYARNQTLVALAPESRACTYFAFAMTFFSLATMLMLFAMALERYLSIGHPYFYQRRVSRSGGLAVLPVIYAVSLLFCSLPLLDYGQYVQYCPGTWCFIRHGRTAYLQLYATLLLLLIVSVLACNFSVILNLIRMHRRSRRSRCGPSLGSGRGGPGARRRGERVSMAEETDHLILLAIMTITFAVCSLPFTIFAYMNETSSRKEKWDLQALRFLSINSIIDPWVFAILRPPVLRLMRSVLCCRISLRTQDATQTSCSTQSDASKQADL

[9] = target: T5, EP3 receptor (Homo sapiens, UniProt P43115); assay: Prostanoid receptor antagonism (FLIPR), EP3; format: cell-based
T5 sequence (P43115 1-390): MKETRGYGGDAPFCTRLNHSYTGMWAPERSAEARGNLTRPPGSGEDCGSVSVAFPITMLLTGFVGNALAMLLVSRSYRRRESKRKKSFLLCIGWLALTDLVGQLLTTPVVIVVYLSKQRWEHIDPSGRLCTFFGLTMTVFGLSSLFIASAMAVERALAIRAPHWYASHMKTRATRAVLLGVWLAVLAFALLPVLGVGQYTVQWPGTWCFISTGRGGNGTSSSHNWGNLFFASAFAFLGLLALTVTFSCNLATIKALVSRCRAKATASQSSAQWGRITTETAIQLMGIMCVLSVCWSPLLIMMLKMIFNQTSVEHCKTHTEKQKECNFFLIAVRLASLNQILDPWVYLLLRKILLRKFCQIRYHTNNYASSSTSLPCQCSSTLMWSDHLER

[10] = Table 1, rat brain, read-out: FAAH Rat brain IC50
[11] = Table 2, rat brain, read-out: FAAH Rat brain IC50
[12] = Table 3, quantity, enzyme source and unit inferred, read-out: FAAH

Compound | Kb ([1]; Table 1) [nM] | Kb ([2]; Table 1) [nM] | IC50 [3, 10] [nM] | Kb ([4]; Table 1) [nM] | Kb ([5]; Table 1) [nM] | Kb ([6]; Table 1) [nM] | Kb ([7]; Table 1) [nM] | Kb ([8]; Table 1) [µM] | Kb ([9]; Table 1) [nM] | Kb ([1]; Table 2) [nM] | IC50 [3, 11] [nM] | Kb ([4]; Table 2) [nM] | Kb ([5]; Table 2) [nM] | Kb ([6]; Table 2) [nM] | Kb ([7]; Table 2) [nM] | Kb ([9]; Table 2) [nM] | other results
O=C(CCc1cc2c(cc1CN1CCC[C@H]1c1nc(C(=O)NCCCCC3CCCCC3)co1)OCO2)NS(=O)(=O)C(F)(F)F [Example 12d] | 60 | 1000 | 740 | 3 | 0.3 | 7 | 360 | 3.9 | 150 | – | – | – | – | – | – | – | –
CCCCCCCCNC(=O)c1coc([C@@H]2CCCN2Cc2cc(F)ccc2CCC(=O)NS(=O)(=O)C(F)(F)F)n1 [Example 12e, 2-{1-[5-fluoro-2-(3-oxo-3-{[(trifluoromethyl)sulfonyl]amino}propyl)benzyl]pyrrolidin-2-yl}-N-octyl-1,3-oxazole-4-carboxamide] | 20 | 290 | – | 20 | < 1 | 20 | 270 | 2.5 | 110 | – | – | – | – | – | – | – | IC50 [3]: 2100 nM
COc1ccc(CCC(=O)NS(=O)(=O)c2ccc(Cl)s2)c(CN2CCC[C@H]2c2nc(C(=O)NCCCCC3CCCCC3)co2)c1 [Example 12j, (S)—N-(4-cyclohexylbutyl)-2-(1-(5-methoxy-2-(3-oxo-3-(5-chlorothienylsulfonamido)propyl)benzyl)pyrrolidin-2-yl)oxazole-4-carboxamide] | – | – | – | – | – | – | – | – | – | 240 | 210 | 28 | 4 | 360 | 2300 | 10 | Kb ([8]; Table 2, NA = inactive): 0.9 µM
COc1ccc(CCC(=O)NS(=O)(=O)N(C)C)c(CN2CCC[C@H]2c2nc(C(=O)NCCCCC3CCCCC3)co2)c1 [Example 12k] | – | – | – | – | – | – | – | – | – | 3100 | 200 | 80 | 13 | 400 | 1400 | 5600 | Kb ([2]; Table 2, NA = inactive): 2900 nM; Kb ([8]; Table 2, NA = inactive): 4 µM
COc1ccc(CCC(=O)O)c(C(=O)N2CCC[C@H]2c2nc(C(=O)NCCCCC3CCCCC3)co2)c1 [Example 19] | – | – | – | – | – | – | – | – | – | – | – | – | – | – | – | – | IC50 [3, 12]: 180 nM
CCS(=O)(=O)NC(=O)CCc1ccc(OC)cc1C(=O)N1CCC[C@H]1c1nc(C(=O)NCCCCC2CCCCC2)co1 [Example 19a, 2-{(S)-1-[2-(3-Ethanesulfonylamino-3-oxo-propyl)-5-methoxy-benzoyl]-pyrrolidin-2-yl}-oxazole-4-carboxylic acid (4-cyclohexyl-butyl)-amide] | – | – | – | – | – | – | – | – | – | – | – | – | – | – | – | – | IC50 [3, 12]: 20 nM
COc1ccc(CCC(=O)NS(C)(=O)=O)c(C(=O)N2CCC[C@H]2c2nc(C(=O)NCCCCC3CCCCC3)co2)c1 [Example 19b, 2-{(S)-1-[2-(3-Methanesulfonylamino-3-oxo-propyl)-5-methoxy-benzoyl]-pyrrolidin-2-yl}-oxazole-4-carboxylic acid (4-cyclohexyl-butyl)-amide] | – | – | – | – | – | – | – | – | – | – | – | – | – | – | – | – | IC50 [3, 12]: 30 nM

Continued, in another order:

Kb ([1]; Table 1) [nM] | Kb ([2]; Table 1) [nM] | IC50 [3, 10] [nM] | Kb ([4]; Table 1) [nM] | Kb ([5]; Table 1) [nM] | Kb ([6]; Table 1) [nM] | Kb ([7]; Table 1) [nM] | Kb ([8]; Table 1) [µM] | Kb ([9]; Table 1) [nM] | Kb ([1]; Table 2) [nM] | IC50 [3, 11] [nM] | Kb ([4]; Table 2) [nM] | Kb ([5]; Table 2) [nM] | Kb ([6]; Table 2) [nM] | Kb ([7]; Table 2) [nM] | Kb ([9]; Table 2) [nM] | Compound | other results
50 | 550 | 1000 | < 1 | < 1 | 40 | 350 | 6.4 | 80 | – | – | – | – | – | – | – | O=C(CCc1ccc(F)cc1CN1CCC[C@H]1c1nc(C(=O)NCCCCC2CCCCC2)co1)NS(=O)(=O)C(F)(F)F [Example 12a] | –
70 | 9500 | 4500 | < 1 | < 1 | 40 | 460 | 5.5 | 100 | – | – | – | – | – | – | – | O=C(CCc1ccc(Cl)cc1CN1CCC[C@H]1c1nc(C(=O)NCCCCC2CCCCC2)co1)NS(=O)(=O)C(F)(F)F [Example 12b, (S)—N-(4-cyclohexylbutyl)-2-(1-(5-chloro-2-(3-oxo-3-(trifluoromethylsulfonamido)propyl)benzyl)pyrrolidin-2-yl)oxazole-4-carboxamide] | –
20 | 860 | 200 | 17 | < 1 | 10 | 270 | 0.83 | 47 | – | – | – | – | – | – | – | COc1ccc(CCC(=O)NS(=O)(=O)C(F)(F)F)c(CN2CCC[C@H]2c2nc(C(=O)NCCCCC3CCCCC3)co2)c1 [Example 12c, (S)—N-(4-cyclohexylbutyl)-2-(1-(5-methoxy-2-(3-oxo-3-(trifluoromethylsulfonamido)propyl)benzyl)pyrrolidin-2-yl)oxazole-4-carboxamide] | –
60 | 400 | 500 | < 1 | < 1 | 20 | 380 | 1.1 | 140 | – | – | – | – | – | – | – | CCCCCCCCNC(=O)c1coc([C@@H]2CCCN2Cc2cc(OC)ccc2CCC(=O)NS(=O)(=O)C(F)(F)F)n1 [Example 12f, 2-{1-(5-methoxy-2-(3-oxo-3-{[(trifluoromethyl)sulfonyl]amino]propyl)benzyl]pyrrolidin-2-yl}-N-octyl-1,3-oxazole-4-carboxamide] | –
– | – | – | – | – | – | – | – | – | 830 | 100 | 8 | 8 | 150 | 2000 | 50 | COc1ccc(CCC(=O)NS(=O)(=O)CCCF)c(CN2CCC[C@H]2c2nc(C(=O)NCCCCC3CCCCC3)co2)c1 [Example 12h, 2(S)—N-(4-cyclohexylbutyl)-2-(1-(5-methoxy-2-(3-oxo-3-(fluoropropylsulfonamido)propyl)benzyl)pyrrolidin-2-yl)oxazole-4-carboxamide] | Kb ([8]; Table 2, NA = inactive): 7.8 µM
– | – | – | – | – | – | – | – | – | 1900 | 150 | 44 | 1 | 210 | 1500 | 480 | COc1ccc(CCC(=O)NS(=O)(=O)C(C)C)c(CN2CCC[C@H]2c2nc(C(=O)NCCCCC3CCCCC3)co2)c1 [Example 12i, (S)—N-(4-cyclohexylbutyl)-2-(1-(5-methoxy-2-(3-oxo-3-(isopropylsulfonamido)propyl)benzyl)pyrrolidin-2-yl)oxazole-4-carboxamide] | –
